Assay results as given in ChEMBL document CHEMBL5550121, “Expanding the ligand spaces for E3 ligases for the design of protein degraders” (Bioorg Med Chem, 2024).

Experiments:
Polycomb protein EED = Polycomb protein EED (Homo sapiens, UniProt O75530); assay: Inhibition of EED (unknown origin) by ELISA based assay
[1] = Inhibition of p38 (unknown origin)

Sequence of Polycomb protein EED (O75530 whole entry): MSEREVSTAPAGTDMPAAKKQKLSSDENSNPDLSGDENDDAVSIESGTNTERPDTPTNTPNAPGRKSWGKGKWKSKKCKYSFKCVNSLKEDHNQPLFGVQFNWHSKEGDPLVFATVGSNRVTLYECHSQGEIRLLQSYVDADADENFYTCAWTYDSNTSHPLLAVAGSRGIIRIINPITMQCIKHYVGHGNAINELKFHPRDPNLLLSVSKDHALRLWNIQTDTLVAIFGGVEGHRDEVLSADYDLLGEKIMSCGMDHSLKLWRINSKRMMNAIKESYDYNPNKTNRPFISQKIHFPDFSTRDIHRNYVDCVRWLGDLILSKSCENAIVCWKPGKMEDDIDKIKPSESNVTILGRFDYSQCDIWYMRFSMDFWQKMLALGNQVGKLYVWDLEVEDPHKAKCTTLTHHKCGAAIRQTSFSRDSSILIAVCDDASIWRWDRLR

Row | SMILES | IC50 (Polycomb protein EED) | IC50 [1]
1 | Cc1ncccc1-c1cnc(NCc2c(F)ccc3c2CCO3)n2cnnc12 | 0.026 µM | 
2 | COc1cc2c(Oc3ccc(NC(=O)C4(C(=O)Nc5ccc(F)cc5)CC4)cc3F)ccnc2cc1OCCCN1CCOCC1 [FORETINIB] |  | 11 µM
